Laboratory results: paper PMC12386934, “Characteristics and Potential of KSL, KSL-W, and Dadapin-1 Antimicrobial Peptides for Preventing Infections of Orthopedic Prosthetic Devices: Identifying the Most Robust Candidate” (International Journal of Molecular Sciences, 2025)
Converted amounts (≈) assume the structure as drawn. Where a SMILES comes first, the peptide text is derived from it.

Experiments:
Format in all cases: cell-based
[1] = tested on: S. epidermidis cra4029 (SE 02)
Excerpt: (§1) The experimental scheme reported in Figure 6 helped to simplify and optimize the in vitro testing of the antibacterial activity of the different AMPs. The initial transparent microtiter plate for the determination of the minimum inhibitory concentration (MIC) by optical density (OD) measurement was conveniently used as a starting point not only for the alterative determination of the MIC by luminescence but also for the minimum bactericidal concentration (MBC) and for the minimum biofilm inhibitory concentration (MBIC), as explained below. For every test peptide, at least three independent experiments were performed on each bacterial strain per test condition (100% MHB and 20% MHB). The sole exception to this rule was when MIC values were on rare occasions found to be greater than 500 µg/mL. Under these circumstances, two consecutive experiments were performed to confirm the results. In this case, the antibacterial activity was considered insignificant and the third experiment was generally considered unnecessary.
The antibacterial properties of the test AMPs were assayed under two distinct conditions of bacterial culture: (i) with bacteria cultured in undiluted Mueller–Hinton II Broth (MHB II) and (ii) with bacteria cultured in diluted MHB II as earlier described in Campoccia et al.. Briefly, a few colonies of each bacterial strain, taken from overnight cultures on Mueller–Hinton Agar plates (MHA, PO50007A, ThermoScientific, Thermo Fisher Scientific, Segrate, Italy), were resuspended in Mueller–Hinton II Broth (MHB II, 24107, Liofilchem, Roseto degli Abruzzi, Italy), either undiluted or at a 20% dilution in deionized water. The concentration of bacteria was adjusted to approximately 10^8 CFU/mL, as estimated by optical density reading at 625 nm, using a Hewlett Packard G1103A spectrophotometer (Waldbronn, Germany). The bacterial suspension was further diluted 1:100 in 100% or 20% MHB II. […]
For assessing the MBC, 10 μL of bacterial suspensions was taken from wells corresponding to MIC, 2× MIC, and 4× MIC and then plated on MHA plates. […] The MBC was determined as the lowest dilution causing absence of bacterial colonies growth on the plate.
In order to assess the extent of the interference of the culture medium composition with the antibacterial activity of the three peptides, a “Rate of Abatement” of the bactericidal properties (RoA) was calculated using the following formula (Equation (1)):RoA = MBCMHB/MBC20% MHB(1)
RoA indicates the fold increases in the MBC when tested in undiluted medium […], i.e., with maximal interference of broth polyanionic substances, with respect to diluted medium […]. […] A more versatile measure to express the loss of activity was calculated as follows. […]

[2] = tested on: S. epidermidis cra4029 (SE 02); remark: listed apart in the source
Excerpt: as §1
(§2) The antibacterial properties of the test AMPs were assayed under two distinct conditions of bacterial culture: (i) with bacteria cultured in undiluted Mueller–Hinton II Broth (MHB II) and (ii) with bacteria cultured in diluted MHB II as earlier described in Campoccia et al.. Briefly, a few colonies of each bacterial strain, taken from overnight cultures on Mueller–Hinton Agar plates (MHA, PO50007A, ThermoScientific, Thermo Fisher Scientific, Segrate, Italy), were resuspended in Mueller–Hinton II Broth (MHB II, 24107, Liofilchem, Roseto degli Abruzzi, Italy), either undiluted or at a 20% dilution in deionized water. The concentration of bacteria was adjusted to approximately 10^8 CFU/mL, as estimated by optical density reading at 625 nm, using a Hewlett Packard G1103A spectrophotometer (Waldbronn, Germany). The bacterial suspension was further diluted 1:100 in 100% or 20% MHB II.
(§3) Serial 1:2 dilutions of all the test peptides were prepared in sterile deionized water starting from a stock solution of 1 mg/mL. Microtiter plates (96-Well CytoOne® Plate, CC7672-7596, Starlab S.r.l., Milano, Italy) were prepared by adding a volume of 100 µL of inoculum to 100 µL of treatment. Each AMP dilution was assayed in triplicate; each microplate included triplicate wells for the blank (100 µL of sterile distilled water and 100 µL of sterile MHB II), and 3 to 6 wells for reference control of 100% growth (100 µL of sterile deionized water and 100 µL of MHB II inoculated with the bacterium). Positive controls were performed in triplicate wells with 100 µL of a 10 mg/mL gentamicin solution (G1272, Sigma Aldrich, Milan, Italy) and with 100 µL of a solution containing 10,000 units/mL of penicillin and 10,000 µg/mL of streptomycin (penicillin–streptomycin, 15140-122, Life Technologies, Monza, Italy).
(§4) After a 1-day incubation at 37 °C, the MIC was determined by two distinct methods: (1) optical density measurement and (2) bioluminescence reading. In the first case, the optical density of the microtiter plates was read directly at a wavelength of 600 nm and the MIC was estimated from the curves obtained by plotting the OD measurements. For the bioluminescence reading, after gentle resuspension, 100 µL of each treated culture was transferred to a new 96-well non-treated plate (236105/237105, Life Technologies, Monza, Italy) and the metabolic activity was determined by the kit Bac-Titer Glo Microbial Cell Viability Assay (G8231, Promega Italia S.r.l, Milan, Italy). Optical density and bioluminescence were read by a Modulus II multifunction plate reader (Turner BioSystems, Sunnyvale, CA, USA) or, alternatively, by an Infinite M Plex (Tecan Group Ltd., Männedorf, Switzerland). As earlier described in [24], in the case of luminescence, the MIC was identified from the curves of growth inhibition as the first concentration leading to a 1-log reduction in bacterial growth (i.e., 90% growth inhibition). […]

[3] = tested on: E. faecalis cra4033 (EF 02)
Excerpt: as §1, §2, §3, §4

[4] = tested on: S. epidermidis cra4029 (SE 02); remark: listed apart in the source
Excerpt: as §1, §2, §3
(§5) The wells of the microplate, initially used for the determination of the MIC, were rinsed twice with 220 µL of phosphate-buffered solution (PBS) to remove loosely attached and planktonic bacteria. A total of 100 µL of fresh PBS and 100 µL of Bac-Titer Glo solution (G8231, Promega Italia S.r.l., Milan, Italy) were added to each well. After a 10 min incubation, a volume of 100 µL was transferred to a new microplate for luminescence determination as described above. As a general rule, the MBIC value was identified as the concentration at which a reduction of at least a log in the metabolic activity was observed.

[5] = tested on: S. aureus cra2198 (SA 02); settings: cra2198 (SA 02)
Excerpt: as §1, §2, §3, §5

[6] = tested on: P. aeruginosa cra3840 (PA 02); settings: cra3840 (PA 02, 24 h)
Excerpt: as §1, §2, §3, §5

[7] = tested on: S. epidermidis cra4034 (SE 01); settings: cra4034 (SE 01)
Excerpt: as §1, §2, §3, §5

[8] = tested on: P. aeruginosa cra4004 (PA 01)
Excerpt: as §1, §2, §3, §5

[9] = tested on: S. aureus cra4030 (SA 01); settings: cra4030 (SA 01, 24 h)
Excerpt: as §1, §2, §3, §5

[10] = tested on: E. faecalis cra4024 (EF 01)
Excerpt: as §1, §2, §3, §5

[11] = tested on: E. faecalis cra4033 (EF 02); remark: listed apart in the source
Excerpt: as §1, §2, §3, §5

[12] = tested on: E. coli cra4038 (EC); settings: cra4038 (EC)
Excerpt: as §1, §2, §3, §5

Structure (SMILES): CC(C)[C@H](NC(=O)[C@H](Cc1c[nH]c2ccccc12)NC(=O)[C@H](Cc1ccccc1)NC(=O)[C@@H](NC(=O)[C@@H](NC(=O)[C@H](CCCCN)NC(=O)[C@@H](N)CCCCN)C(C)C)C(C)C)C(=O)N[C@@H](CCCCN)C(=O)N[C@@H](Cc1ccccc1)C(=O)N[C@@H](CCCCN)C(=O)O [KSL-W] (H-KKVVFWVKFK-OH)
- MBC [1]: 1.95 µg/mL (≈ 1.49 µM)
- MIC [2]: 0.49 to 0.98 µg/mL
- MIC [3]: 15.63 to 31.25 µg/mL
- LR, Log10 reduction in bacterial metabolism for a given MBIC ([4]; cra4029 (SE 02)): 2 LR
- MBIC ([4]; cra4029 (SE 02, 24 h)): 0.24 to 0.49 µg/mL
- LR, Log10 reduction in bacterial metabolism for a given MBIC [5]: 3 LR
- MBIC [6]: 31.25 µg/mL
- LR, Log10 reduction in bacterial metabolism for a given MBIC [7]: 3 LR
- LR, Log10 reduction in bacterial metabolism for a given MBIC [8]: 2 LR
- MBIC [9]: 31.25 µg/mL
- LR, Log10 reduction in bacterial metabolism for a given MBIC ([10]; cra4024 (EF 01)): 3 LR
- MBIC ([10]; cra4024 (EF 01, 24 h)): 3.91 to 7.81 µg/mL
- LR, Log10 reduction in bacterial metabolism for a given MBIC ([11]; cra4033 (EF 02)): 2 LR
- MBIC ([11]; cra4033 (EF 02, 24 h)): 3.91 µg/mL
- LR, Log10 reduction in bacterial metabolism for a given MBIC [12]: 3 LR
